Patent publication US20060140858A1, “Drug pre-targeting by means of bi-specific antibodies and hapten constructs comprising a carrier peptide and the active agent(s)” (Immunomedics, Inc., priority 2002, published 2006)
Read-outs that look alike come from different tables or passages of the source. *1 amine or outer side, *2 acyl side, *3 side chain or, on linkers, in order; H or OH if unused. Where a SMILES comes first, the peptide text is derived from it. Side-chain parts run from the residue outwards. [ ]: non-standard residue; d: D form. The star is where a group is joined. HSG = histamine succinyl glycyl group, O=C(CCC(=O)NCC(=O)*)NCCc1c[nH]cn1; DOTA = O=C(O)CN1CCN(CC(=O)O)CCN(CC(=O)*)CCN(CC(=O)O)CC1; NH(2-(imidazol-4-yl)ethyl) = c1ncc(CCN*)[nH]1; Suc = O=C(CCC(=O)[*:2])[*:1]

Columns and labels:
[1] = mouse, in vivo; cited from earlier work
GW-39 [2] = assay: Comparison of ^177Lu-IMP-241 and ^111In-IMP-241 pretargeting using hMN-14 × m679 F(ab′)2 bsMAb (24 h bsMAb clearance); format: in vivo, nude mice; details: listed as 111In-IMP-241
Protocol: (§1) Female NCr nude mice Charles River Laboratories, Inc., Fredrick Md. or Taconic, Germantown, N.Y.) approximately 6 weeks of age were implanted subcutaneously with 0.2 ml of this suspension. Two to three weeks after implantation of tumors, animals were injected with the radiolabeled peptide alone, or for pretargeting, with the bsMAb followed 1 to 2 days later with the radiolabeled peptide. […] At the designated times after the peptide injection, animals were anesthetized, bled by cardiac puncture, and then euthanized prior to necropsy. Tissues were removed, weighed and counted by gamma scintillation using appropriate windows for each radionuclide along with standards prepared from the injected materials. When dual isotope counting was used, appropriate backscatter correction was made. GI tissues (stomach, small intestine and large intestine were weighed and counted with their contents. Data are expressed as the percent injected dose per gram tissue (% ID/g) and the ratio of the percentages in the tumor to the normal tissues (T/NT). All values presented in the tables and figures represent the mean and standard deviation of the calculated values with the number of animals used for each study provided therein.

GW-39 [3] = system: GW-39; parameters: species or system nude mice; details: mouse, in vivo
Protocol: as §1

[4] = format: in vitro ADME, mouse
Source text: The peptide was monitored as described above by HPLC.

[5] = Comparison of ^177Lu-IMP-241 and ^111In-IMP-241 pretargeting using hMN-14 × m679 F(ab′)2 bsMAb (24 h bsMAb clearance); format: in vivo, nude mice; details: female, NCr nude, mouse, iv, total radioactivity, read-out: Percent Injected Dose Per Gram; for tissue uptake at 3 h: 3 hour after peptide; for tissue uptake at 24 h: 24 hour after peptide
Protocol: as §1

in vivo = assay: in vivo; parameters: species or system nude mice; details: female, NCr nude, mouse, total radioactivity, % ID/g
Protocol: as §1, with “GW-39, a CEA-producing human colon cancer cell line (See, Goldenberg, D. M. and Hansen, H. […] Female” for “Female”, “suspension.” for “suspension. Two to three weeks after implantation of tumors, animals were injected with the radiolabeled peptide alone, or for pretargeting, with the bsMAb followed 1 to 2 days later with the radiolabeled peptide.”

GW-39 [6] = assay: in vivo; parameters: species or system nude mice; details: mouse
Protocol: as §1, with “GW-39, a CEA-producing human colon cancer cell line (See, Goldenberg, D. M. and Hansen, H. […] Female” for “Female”, “suspension.” for “suspension. Two to three weeks after implantation of tumors, animals were injected with the radiolabeled peptide alone, or for pretargeting, with the bsMAb followed 1 to 2 days later with the radiolabeled peptide.”

679 IgG = assay: Binding of labeled peptide to excess 679 IgG by size exclusion HPLC; parameters: species or system murine; details: ^90Y labeled peptide
Protocol: The ^90Y (˜400 μCi/kit) was diluted to 1 mL in deionized water and added to the lyophilized kits. The kits were heated in a boiling water bath for 15 min, the vials were cooled to room temperature and the labeled peptides were evaluated by reverse phase HPLC (HPLC conditions: Waters Nova-Pak C-18, 8×100 mm RCM column eluted at 3 mL/min with a linear gradient from 100% (0.1% TFA in H2O) to 100% (90% CH3CN, 0.1% TFA, 10% H2O)).
The ^111In (˜300 μCi/kit) was diluted to 0.5 mL in deionized water and added to the lyophilized kits. The kits were heated in a boiling water bath for 15 min, the vials were cooled and 0.5 mL of 2.56×10^−5 M In in 0.5 M acetate buffer was added and the kits were again heated in the boiling water bath for 15 min. The labeled peptide vials were cooled to room temperature and evaluated by reverse phase HPLC (HPLC conditions: Waters Nova-Pak C-18, 8×100 mm RCM column eluted at 3 mL/min with a linear gradient from 100% (0.1% TFA in H2O) to 100% (90% CH3CN, 0.1% TFA, 10% H2O)).
The mixture was centrifuged and DTPA was added to a final concentration of 3 mM. After 15 min at room temperature, the final volume was raised to 1.0 mL with 0.1 M sodium acetate, pH 6.5. The amount of unbound isotope was determined by reverse phase HPLC and ITLC developed in saturated sodium chloride solution. […]

GW-39 tumor = assay: Tumor/nontumor ratios for directly labeled ^99mTc-hMN-14 Fab′; format: in vivo, nude mice; details: 3 h after injection
Protocol: (§2) Humanized MN-14 (hMN-14) Fab′-SH was prepared in a similar manner as described previously. ^99mTc-pertechnetate (30 mCi) was added directly to the lyophilized hMN-14-Fab′-SH (1.0 mg) and injected in animals within 30 minutes. This product had 3.0% unbound ^99mTc by ITLC and an immunoreactive fraction of 92%.
as §1

[7] = Immunoreactive fraction of ^99mTc-hMN-14 Fab′; format: binding
Protocol: as §2

[8] = Enzymatic analysis of carboxylesterase-DTPA conjugate; format: biochemical, rabbit
Protocol: (§3) After 1 hour of incubation, the mixture is pre-purified on two 5-mL spin-columns (Sephadex G50/80 in 0.1 M sodium phosphate pH 7.3) to remove excess reagent and DMSO. The eluate is purified on a TSK 3000G Supelco column using 0.2 M sodium phosphate pH 6.8 at 4 ml/min. The fraction containing conjugate is concentrated on a Centricon-10™ concentrator, and buffer-exchanged with 0.1 M sodium acetate pH 6.5. […] Incorporation by HPLC and ITLC analyses is 97.7%.

hMN-14 Fab′×734 Fab′ = assay: HPLC complexation of In-111 carboxylesterase-DTPA with bi-specific antibody; format: binding; details: 20-fold molar excess of hMN-14 Fab′×734 Fab′
Protocol: as §3

Which hepatobiliary clearance [1] does the source give for `COc1cccc2c1C(=O)c1c(O)c3c(c(O)c1C2=O)C[C@@](O)(C(=O)CO)C[C@@H]3O[C@H]1C[C@H](N)[C@H](O)[C@H](C)O1` [Doxorubicin] here?
The hepatobiliary clearance was about 95%.

For `NC(=O)[C@H](CCCCNC(=O)CNC(=O)CCC(=O)NCCc1cnc[nH]1)NC(=O)[C@@H](Cc1ccc(O)cc1)NC(=O)[C@H](CCCCNC(=O)CNC(=O)CCC(=O)NCCc1cnc[nH]1)NC(=O)[C@H](Cc1ccccc1)NC(=O)CN1CCN(CC(=O)O)CCN(CC(=O)O)CCN(CC(=O)O)CC1` [IMP 241, DOTA-Phe-Lys(HSG)-D-Tys-Lys(HSG)-NH2] ({DOTA}-FK([Gly-Suc-NH(2-(imidazol-4-yl)ethyl)])[dY]K([Gly-Suc-NH(2-(imidazol-4-yl)ethyl)])-NH2), which “Percent Injected Dose Per Gram” value (GW-39 [2]; Blood, 3 hour after peptide) is on record?
Its value is 1.87 ± 0.97 % ID/g.

What about the “Percent Injected Dose Per Gram” value (GW-39 [2]; Kidney, 3 hour after peptide) of the same molecule?
Its value is 3.00 ± 0.87 % ID/g.

And the “Percent Injected Dose Per Gram” value (GW-39 [2]; Liver, 3 hour after peptide)?
Its value is 0.57 ± 0.24 % ID/g.

What about the “Percent Injected Dose Per Gram” value (GW-39 [2]; Lungs, 3 hour after peptide) of the same molecule?
Its value is 0.81 ± 0.33 % ID/g.

And the “Percent Injected Dose Per Gram” value (GW-39 [2]; Lungs, 24 hour after peptide)?
The value was 0.24 ± 0.07 % ID/g.

And the “Percent Injected Dose Per Gram” value (GW-39 [2]; Tumor, 3 hour after peptide)?
Its value is 8.76 ± 2.31 % ID/g.

What about the “Percent Injected Dose Per Gram” value (GW-39 [2]; Tumor, 24 hour after peptide) of the same molecule?
Its value is 2.54 ± 1.04 % ID/g.

What about the “increase of tumor accretion by pretargeting compared to the peptide alone” value (GW-39 [3]) of the same molecule?
The value was about 100 fold.

What about the “decomposed in mouse serum” value [4] of the same molecule?
The value was about 5%.

For `NC(=O)[C@H](CCCCNC(=O)CNC(=O)CCC(=O)NCCc1cnc[nH]1)NC(=O)[C@@H](Cc1ccc(O)cc1)NC(=O)[C@H](CCCCNC(=O)CNC(=O)CCC(=O)NCCc1cnc[nH]1)NC(=O)[C@H](Cc1ccccc1)NC(=O)CN1CCN(CC(=O)O)CCN(CC(=O)O)CCN(CC(=O)O)CC1` [^177Lu-IMP-241, metal not drawn] ({DOTA}-FK([Gly-Suc-NH(2-(imidazol-4-yl)ethyl)])[dY]K([Gly-Suc-NH(2-(imidazol-4-yl)ethyl)])-NH2), which tissue uptake at 3 h ([5]; blood, Blood) is on record?
Its tissue uptake at 3 h is 1.48 ± 0.19 %ID/g.

What about the tissue uptake at 24 h ([5]; blood, Blood) of the same molecule?
The tissue uptake at 24 h was 0.36 ± 0.05 %ID/g.

And the tissue uptake at 3 h ([5]; kidney, Kidney)?
The tissue uptake at 3 h was 3.61 ± 0.43 %ID/g.

What about the tissue uptake at 24 h ([5]; kidney, Kidney) of the same molecule?
Its tissue uptake at 24 h is 0.18 ± 0.03 %ID/g.

And the tissue uptake at 3 h ([5]; liver, Liver)?
Its tissue uptake at 3 h is 0.46 ± 0.08 %ID/g.

And the tissue uptake at 24 h ([5]; liver, Liver)?
The tissue uptake at 24 h was 0.17 ± 0.04 %ID/g.

What about the tissue uptake at 3 h ([5]; lungs, Lungs) of the same molecule?
The tissue uptake at 3 h was 0.64 ± 0.12 %ID/g.

What about the tissue uptake at 24 h ([5]; lungs, Lungs) of the same molecule?
The tissue uptake at 24 h was 0.17 ± 0.02 %ID/g.

And the tissue uptake at 3 h ([5]; spleen, Spleen)?
Its tissue uptake at 3 h is 0.36 ± 0.04 %ID/g.

And the tissue uptake at 24 h ([5]; spleen, Spleen)?
The tissue uptake at 24 h was 0.29 ± 0.07 %ID/g.

And the tissue uptake at 3 h ([5]; tumor, Tumor)?
Its tissue uptake at 3 h is 9.71 ± 2.49 %ID/g.

What about the tissue uptake at 24 h ([5]; tumor, Tumor) of the same molecule?
Its tissue uptake at 24 h is 2.59 ± 0.3 %ID/g.

And the tissue uptake at 48 h (in vivo)?
Its tissue uptake at 48 h is 0.94 ± 0.2 %ID/g.

What about the “decrease in kidneys compared to the level seen at 24 h” value (GW-39 [6]) of the same molecule?
Its value is about 45%.

Which “binding to excess 679 IgG by size exclusion HPLC” value (679 IgG) does the source give for “^90Y-IMP-241: IMP 241 divalent HSG-DOTA peptide radiolabeled with ^90Y ({DOTA}-FK(HSG)YK(HSG)-NH2; not fully specified (residue 3); also: DOTA loaded with 90Y)” here?
Its value is “binding to the antibody”.

Which Tumor/nontumor ratio (GW-39 tumor; Blood) does the source give for “^99mTc-hMN-14 Fab′: humanized MN-14 anti-CEA Fab′ directly radiolabeled with ^99mTc” here?
The Tumor/nontumor ratio was 1.0 ± 0.01.

And the Tumor/nontumor ratio (GW-39 tumor; Kidney)?
The Tumor/nontumor ratio was 0.02 ± 0.001.

And the Tumor/nontumor ratio (GW-39 tumor; Liver)?
Its Tumor/nontumor ratio is 0.2 ± 0.02.

What about the Tumor/nontumor ratio (GW-39 tumor; Lungs) of the same molecule?
Its Tumor/nontumor ratio is 0.7 ± 0.1.

And the Tumor/nontumor ratio (GW-39 tumor; Spleen)?
Its Tumor/nontumor ratio is 0.9 ± 0.4.

And the immunoreactive fraction [7]?
The immunoreactive fraction was 92%.

B1: Carboxylesterase-DTPA (conjugate)
chain: HPSAPPVVDTVHGKVLGKFVSLEGFAQPVAVFLGVPFAKPPLGSLRFAPPQPAESWSHVKNTTSYPPMCSQDAVSGHMLSELFTNRKENIPLKFSEDCLYLNIYTPADLTKRGRLPVMVWIHGGGLMVGGASTYDGLALSAHENVVVVTIQYRLGIWGFFSTGDEHSRGNWGHLDQVAALRWVQDNIANFGGDPGSVTIFGESAGGQSVSILLLSPLTKNLFHRAISESGVALLSSLFRKNTKSLAEKIAIEAGCKTTTSAVMVHCLRQKTEEELMEVTLKMKFMALDLVGDPKENTAFLTTVIDGVLLPKAPAEILAEKKYNMLPYMVGINQQEFGWIIPMQMLGYPLSEGKLDQKTATELLWKSYPIVNVSKELTPVATEKYLGGTDDPVKKKDLFLDMLADLLFGVPSVNVARHHRDAGAPTYMYEYRYRPSFSSDMRPKTVIGDHGDEIFSVLGAPFLKEGATEEEIKLSKMVMKYWANFARNGNPNGEGLPQWPAYDYKEGYLQIGATTQAAQKLKDKEVAFWTELWAKEAARPRETEHIEL
With B1 as the molecule, how does the enzymatic activity [8] read?
The enzymatic activity was 115 enzyme units/mg protein.

And the “complexation with bi-specific antibody (HPLC)” value (hMN-14 Fab′×734 Fab′)?
Its value is “completely complexed”.
